Results from patent publication US20240174684A1, “INHIBITORS OF cGAS ACTIVITY AS THERAPEUTIC AGENTS” (BELLBROOK LABS, LLC, priority 2021, published 2024).

Assays:
[1] = test system: IFNβ production in THP-1 cells; assay: IFNβ ELISA in THP-1 cells; assay type: cell-based, human
In short: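 THP-1 cells stimulated with dsDNA or cGAMP (STING activation bypassing cGAS) in the presence of compound; IFNβ secreted into medium quantified by ELISA. IC50 values reported in potency bins.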

[2] = test system: IFN-β production in PBMCs; assay: IFNβ ELISA in human primary PBMCs; assay type: cell-based; conditions: PBMC
In short: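 Human primary PBMCs stimulated with dsDNA or cGAMP to trigger a cGAS/STING-dependent type I IFN response. Secreted IFNβ quantified by ELISA across a dose response to derive IC50 values.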

[3] = Metabolic stability in mouse hepatocytes; assay type: in vitro ADME; conditions: read-out: Mouse MS Stability t1/2
Description: (§1) ADME studies: Compound A and the compounds of the disclosure were tested for aqueous solubility (KSOL), metabolic stability (human and mouse […]) and permeability (Caco-2 and/or MDR1-MDCK cells) to provide an initial indication of oral bioavailability.
(§2) The favorable physicochemical properties are reflected in promising results in in vitro ADME tests. […] Metabolic stability, which was routinely measured with mouse and human hepatocytes, is outstanding, with t, greater than 2 hours for all of the compounds of the disclosure in which it has been measured. Cell permeability was measured using MDCK cells expressing human MDR1 (P-glycoprotein) to assess passive permeability as well as active transport out of the cell. […] Numerous compounds in Table 1 meet these permeability criteria, which is consistent with their design for TPSA <140 Å^2 and increased lipophilicity.
(§3) The MDCK-MDR1 permeability A ->B is shown in Table 2 below, where A represents 5-10 cm/s×10^−6; B represents 1-5 cm/s×10^−6; and C represents <1 cm/ss×10^−6. The metabolic stability half time, in both mouse and human hepatocytes, is also shown in Table 2 below, where A′ represents 100-200 minutes; B′ represents 200-300 minutes; and C′ represents >300 minutes.

[4] = target: mouse cGAS (Mus musculus, UniProt Q8C6L5); assay: Transcreener cGAS enzymatic assay with mouse cGAS; assay type: biochemical; conditions: standard conditions, read-out: IC50 with mcGAS
Description: Structural, biochemical and biophysical analysis and selectivity profiling: Potency and MOA studies, including Mn^2+ sensitivity, were performed using the Transcreener cGAS enzymatic assay, which is manufactured at BellBrook Labs (Fitchburg, Wisconsin, USA). This homogenous cGAS enzymatic assay was developed with fluorescence polarization (FP) and time-resolved Forster resonance energy transfer (TR-FRET) readouts, as described in International Patent Publication WO 2020/142729, incorporated by reference herein in its entirety. Plates are read on a PHERAstar FSX multimode reader (BMG). The compounds of the disclosure were tested for inhibition of cGAS ([…]) using this cGAS enzymatic assay under standard conditions (100 μM ATP and GTP, 62.5 nM bp ISD, 60 minute reactions), high ATP and GTP (1 mM) to mimic physiological conditions, in the presence of 200 μM MnCl2, and with mouse cGAS under standard conditions.
Potency with mcGAS is important for vivo efficacy studies and represents a challenge for lead development because mcGAS shares only 57% amino acid identity with human enzyme and there are significant functional differences.

[5] = Metabolic stability in human hepatocytes; assay type: in vitro ADME; conditions: read-out: Human MS Stability t1/2
Description: as §1, §2, §3

mouse cGAS, sequence (Q8C6L5 whole entry): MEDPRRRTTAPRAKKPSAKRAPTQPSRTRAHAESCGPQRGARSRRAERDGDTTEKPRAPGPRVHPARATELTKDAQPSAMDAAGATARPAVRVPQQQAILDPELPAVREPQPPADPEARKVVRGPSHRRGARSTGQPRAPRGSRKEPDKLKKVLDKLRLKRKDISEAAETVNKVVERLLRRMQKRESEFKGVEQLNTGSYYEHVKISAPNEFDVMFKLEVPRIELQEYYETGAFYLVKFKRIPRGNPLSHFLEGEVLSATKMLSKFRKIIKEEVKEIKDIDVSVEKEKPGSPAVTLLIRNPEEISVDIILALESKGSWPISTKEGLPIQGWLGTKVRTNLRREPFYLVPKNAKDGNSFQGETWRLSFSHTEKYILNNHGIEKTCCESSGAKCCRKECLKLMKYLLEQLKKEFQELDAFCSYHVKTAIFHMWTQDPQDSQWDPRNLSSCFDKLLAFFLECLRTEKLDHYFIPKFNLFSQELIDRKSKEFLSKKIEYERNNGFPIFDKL

IC50 ([1]; Homo sapiens, THP-1 cells): < 1000 nM
Cellular IC50 relative to biochemical IC50 ([1]; cellular assays vs cGAS enzymatic assay at 1 mM ATP/GTP): essentially identical
half-life [3]: > 5 h
IC50 [4]: 4230 nM
half-life [5]: 1.67 to 3.33 h
Structure (SMILES): Cc1nc(N2C[C@@H](CC(=O)Nc3ccc(-c4ccccc4)cc3)C[C@H]2C(=O)O)c2oc3ccccc3c2n1 [Compound 5, (2S,4R)-4-(2-([1,1′-biphenyl]-4-ylamino)-2-oxoethyl)-1-(2-methylbenzofuro[3,2-d]pyrimidin-4-yl)pyrrolidine-2-carboxylic acid]
IC50 [2]: 1000 to 2500 nM
